Source: article PMC11747885, “Potent inhibitors of the human RNA ligase Rlig1 highlights its role in RNA integrity maintenance under oxidative cellular stress” (Chemical Science, 2025)
Read-outs that look alike come from different tables or passages of the source.

How the values were obtained:
Hsp90-TPR2A = biological target: Hsp90-TPR2A; set-up: method as in MedChemExpress; settings: interaction of Hsp90-TPR2A; ref MedChemExpress; cited from earlier work
Rlig1-AMP = biological target: T1, Rlig1-AMP (Homo sapiens, UniProt Q8N999); experiment: FRET-based high-throughput screening of inhibitors for Rlig1-AMP; type: biochemical; settings: for 1-D Distance: difference of raw data w/o and w enzyme; for Raw data [w Enyzm]: with enzyme; for Raw data [w/o Enzym]: without enzyme
T1 construct: made in house; host or cells: E. coli BL21 (DE3), pET15b-Rlig1
T1 sequence (Q8N999 whole entry): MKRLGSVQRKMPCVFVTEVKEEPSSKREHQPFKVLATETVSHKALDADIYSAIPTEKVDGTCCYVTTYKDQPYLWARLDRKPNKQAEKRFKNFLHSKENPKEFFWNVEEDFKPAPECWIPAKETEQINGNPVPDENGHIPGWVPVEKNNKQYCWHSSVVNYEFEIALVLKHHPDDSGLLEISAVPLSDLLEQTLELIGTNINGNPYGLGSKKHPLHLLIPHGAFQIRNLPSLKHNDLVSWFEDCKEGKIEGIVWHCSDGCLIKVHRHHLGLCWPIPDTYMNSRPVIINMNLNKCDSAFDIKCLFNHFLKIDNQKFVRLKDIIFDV

[1] = in DMSO; ref MedChemExpress; cited from earlier work
FAAH [2] = test system: FAAH; set-up: method as in MedChemExpress; settings: mouse FAAH; ref MedChemExpress; cited from earlier work
FAAH [3] = test system: FAAH; set-up: method as in MedChemExpress; settings: rat FAAH; ref MedChemExpress; cited from earlier work
FAAH [4] = test system: FAAH; set-up: method as in MedChemExpress; settings: human FAAH; ref MedChemExpress; cited from earlier work
G9a = test system: G9a; set-up: method as in MedChemExpress [1]; settings: ref MedChemExpress [1]; cited from earlier work
factor IXaβ (FIXa) = biological target: factor IXaβ (FIXa); set-up: method as in MedChemExpress [1][2][3]; settings: ref MedChemExpress [1][2][3]; cited from earlier work
HIV-1 = settings: ref MedChemExpress; cited from earlier work
HCV = test system: HCV; set-up: method as in MedChemExpress; settings: ref MedChemExpress; cited from earlier work
Ebola virus = settings: cited from earlier work
Dengue Fever virus = test system: Dengue Fever virus; set-up: method as in MedChemExpress; settings: ref MedChemExpress; cited from earlier work
Rift Valley virus = settings: cited from earlier work
[5] = biological target: phosphodiesterase 5 (PDE5); set-up: method as in MedChemExpress; settings: ref MedChemExpress; cited from earlier work
[6] = biological target: phosphodiesterase 4 (PDE4); set-up: method as in MedChemExpress; settings: ref MedChemExpress; cited from earlier work
[7] = biological target: phosphodiesterase 3 (PDE3); set-up: method as in MedChemExpress; settings: ref MedChemExpress; cited from earlier work
[8] = biological target: Acyl-coenzyme A: cholesterol acyltransferase (ACAT); set-up: method as in MedChemExpress [1]; settings: rat liver microsomal ACAT; ref MedChemExpress [1]; cited from earlier work
FLT3 WT = test system: FLT3 WT; set-up: method as in MedChemExpress [1][2][3]; settings: ref MedChemExpress [1][2][3]; cited from earlier work
FLT3 D835Y = test system: FLT3 D835Y; set-up: method as in MedChemExpress [1][2][3]; settings: ref MedChemExpress [1][2][3]; cited from earlier work
[9] = test system: FLT3 internal tandem duplication (ITD); set-up: method as in MedChemExpress [1][2][3]; settings: ref MedChemExpress [1][2][3]; cited from earlier work
Cdc25A = test system: Cdc25A; set-up: method as in MedChemExpress [1]; settings: ref MedChemExpress [1]; cited from earlier work
Cdc25C = test system: Cdc25C; set-up: method as in MedChemExpress [1]; settings: ref MedChemExpress [1]; cited from earlier work
Cdc25B = test system: Cdc25B; set-up: method as in MedChemExpress [1]; settings: ref MedChemExpress [1]; cited from earlier work
[10] = set-up: method as in MedChemExpress [1]; settings: ref MedChemExpress [1]; read-out: IC50 superoxide anion scavenging; cited from earlier work
[11] = set-up: method as in MedChemExpress [1]; settings: ref MedChemExpress [1]; read-out: IC50 DPPH radical scavenging; cited from earlier work
TLR4 signaling = test system: TLR4 signaling; set-up: method as in MedChemExpress [1][2][3]; settings: ref MedChemExpress [1][2][3]; cited from earlier work
PI5P4Kα = test system: PI5P4Kα; set-up: method as in MedChemExpress [1]; settings: ref MedChemExpress [1]; cited from earlier work
H+/K+-ATPases = test system: H+/K+-ATPases; set-up: method as in MedChemExpress [1]; settings: porcine, canine, and human, in vitro; ref MedChemExpress [1]; cited from earlier work
proton transport = test system: proton transport; set-up: method as in MedChemExpress; settings: ref MedChemExpress; read-out: EC50, inhibition of proton transport; cited from earlier work
[12] = biological target: Insulin-like Growth Factor 1 Receptor (IGF1R); set-up: method as in MedChemExpress; settings: ref MedChemExpress; cited from earlier work
NTPDase 3 = biological target: NTPDase 3; set-up: method as in MedChemExpress; settings: ref MedChemExpress; cited from earlier work
NTPDase 1 (CD39) = biological target: NTPDase 1 (CD39); set-up: method as in MedChemExpress; settings: ref MedChemExpress; cited from earlier work
NTPDase 2 = biological target: NTPDase 2; set-up: method as in MedChemExpress; settings: ref MedChemExpress; cited from earlier work
[13] = HTS hits, normalized value (npi)
[14] = sheet HTS hits, MedChemExpress library
[15] = HTS hits, normalised value of 1-D Distance

Compound	1-D Distance (Rlig1-AMP; HTS hits)	Raw data [w Enyzm] (Rlig1-AMP; HTS hits)	Raw data [w/o Enzym] (Rlig1-AMP; HTS hits)	solubility, DMSO [1]	1-D Distance.npi (Rlig1-AMP; [14])	1-D Distance (Rlig1-AMP; sheet HTS hits)	Raw data [w Enyzm] (Rlig1-AMP; sheet HTS hits)	Raw data [w/o Enzym] (Rlig1-AMP; sheet HTS hits)	further results
Cn1nc(-c2ccccc2)nc2c(=O)n(C)c(=O)nc1-2 [3-Phenyltoxoflavin]	2083	15668	17751	–	–	–	–	–	Kd (Hsp90-TPR2A): 585 nM; 1-D Distance.npi (Rlig1-AMP; [13]): 71.558
COc1ccc(-c2coc3cc(O)cc(O)c3c2=O)cc1 [Biochanin A]	–	–	–	DMSO : ≥ 50 mg/mL (175.90 mM)	79.7493	1536	8945	10481	IC50 (FAAH [2]): 1800 nM; IC50 (FAAH [3]): 1400 nM; IC50 (FAAH [4]): 2400 nM
COc1cc2c(NCC3CCN(C)CC3)cc(-c3ccc(C)o3)nc2cc1OCCCN1CCCC1.Cl.Cl.Cl [CM-579 trihydrochloride]	–	–	–	–	80.8725	1286	6218	7504	IC50 (G9a): […]
CN1CCc2nc(C(=O)N[C@@H]3C[C@@H](C(=O)N(C)C)CC[C@@H]3NC(=O)C(=O)Nc3ccc(Cl)cn3)sc2C1.Cc1ccc(S(=O)(=O)O)cc1.O [Edoxaban (tosylate monohydrate)]	–	–	–	–	77.5766	1653	9167	–	Ki (factor IXaβ (FIXa)): 41700 nM
Cc1cc(NCCCN(C)C)c2ccc3c(ccc4c(NCCCN(C)C)cc(C)nc43)c2n1.Cl.Cl.Cl.Cl [FGI-106 (tetrahydrochloride)]	429	7836	8265	–	–	–	–	–	EC50 (HIV-1): 150 nM; EC50 (HCV): 200 nM; 1-D Distance.npi (Rlig1-AMP; [13]): 96.4905; EC50 (Ebola virus): 100 nM; EC50 (Dengue Fever virus): 400 to 900 nM; EC50 (Rift Valley virus): 800 nM
Cl.O=C1NCC2(CCN(CCc3ccccc3)CC2)O1 [Fenspiride (hydrochloride)]	1963	8551	10514	–	–	–	–	–	-log IC50, PDE5 [5]: ~3.8; 1-D Distance.npi (Rlig1-AMP; [15]): 70.4519; -log IC50, PDE4 [6]: 4.16; -log IC50, PDE3 [7]: 3.44
CC(C)=CCc1cc([C@@H]2CC(=O)c3ccc(O)c(CC=C(C)C)c3O2)ccc1O [Glabrol]	–	–	–	DMSO : 100 mg/mL (254.78 mM; Need ultrasonic)	–	1660	8836	10496	IC50 [8]: 24600 nM
Cc1ccc2c(-c3nc(Nc4cc(CN5C[C@@H](C)N[C@@H](C)C5)cc(C5CC5)c4)ncc3Cl)c[nH]c2c1 [HM43239]	–	–	–	DMSO : 125 mg/mL (249.47 mM; Need ultrasonic)	–	834	6467	5633	IC50 (FLT3 WT): […]; IC50 (FLT3 D835Y): […]; IC50 [9]: 1.8 nM
Cc1ccc(Cn2cc(CNC3=C(Cl)C(=O)c4cccnc4C3=O)nn2)cc1 [M2N12]	–	–	–	DMSO : 11.11 mg/mL (28.21 mM; ultrasonic and warming and heat to 67°C)	96.6155	465	6859	7324	IC50 (Cdc25A): 530 nM; IC50 (Cdc25C): 90 nM; IC50 (Cdc25B): 1390 nM
O=C1O[C@@H]2[C@@H](O)[C@H](O)[C@@H](CO)O[C@H]2c2c1cc(O)c(O)c2O [Norbergenin]	–	–	–	DMSO : 125 mg/mL (397.79 mM; Need ultrasonic)	–	1829	9099	10928	IC50 [10]: 32000 nM; IC50 [11]: 13000 nM
C/C(=N\N=C(N)N)c1cc(NC(=O)CCCCCCCCC(=O)Nc2cc(/C(C)=N/N=C(N)N)cc(/C(C)=N/N=C(N)N)c2)cc(/C(C)=N/N=C(N)N)c1.Cl.Cl.Cl.Cl [Semapimod (tetrahydrochloride)]	–	–	–	–	101.371	217	4067	3850	IC50 (TLR4 signaling): ~300 nM
CN(C)C/C=C/C(=O)Nc1ccc(C(=O)Nc2cccc(Nc3cc(-c4c[nH]c5ccccc45)ncn3)c2)cc1 [THZ-P1-2]	–	–	–	–	94.2865	656	5306	4650	IC50 (PI5P4Kα): 190 nM
Cc1nc2cc(C(=O)N(C)C)cc(O[C@H]3CCOc4cc(F)cc(F)c43)c2[nH]1 [Tegoprazan]	–	–	–	DMSO : 100 mg/mL (258.14 mM; Need ultrasonic)	–	1843	8992	10835	IC50 (H+/K+-ATPases): 290 to 520 nM
CCCCCCCCCCCCCCCC[N+](C)(C)CCN(Cc1ccc(OC)cc1)c1ncccn1.[Br-] [Thonzonium (bromide)]	365	4968	4603	–	–	–	–	–	EC50 (proton transport): 69000 nM; 1-D Distance.npi (Rlig1-AMP; [15]): 101.053
Indirubin Derivative E804	–	–	–	–	87.7994	1070	1875	2945	IC50 [12]: 650 nM
Sodium metatungstate	673	16164	15491	–	–	–	–	–	1-D Distance.npi (Rlig1-AMP; [13]): 95.6511; Ki (NTPDase 3): 3260 nM; Ki (NTPDase 1 (CD39)): 2580 nM; Ki (NTPDase 2): 28800 nM
